Results from PubChem BioAssay AID1985 (Southern Research Specialized Biocontainment Screening …, 2009).

Tested on: S. Typhi PhoP-promoter GFP reporter, fluorescence, 4 h
Assay: modified counter assay using GFP fluorescence, PhoP regulon inhibitor project, dose response (AID 1985)

Row | Compound | IC50 [µM]
1 | O=C(Cn1cc[n+](CC(=O)c2ccc(Cl)cc2Cl)c1)c1ccc(Cl)cc1Cl | 37.2
2 | FC(F)Oc1ccc(NC(=S)NCc2nc3ccccc3[nH]2)cc1 | 33.7
3 | O=c1ccnc(Sc2ncccc2[N+](=O)[O-])[nH]1 | 102
4 | CCN1/C(=C/C(C)=C/c2sc3ccccc3[n+]2CC)Sc2ccccc21 | 12.6
5 | CN(C)CC/C=C1\c2ccc(F)cc2Sc2cc(F)c(Cl)cc21 | 36.7
6 | Cc1cccc(NC2=NC3(CCCCC3)N=C(N)N2)c1 | 88.4
7 | CNCCCN1c2ccccc2CCc2ccccc21 | 143
8 | Cc1nc2c(=O)n(C)c(=O)nc-2n(C)n1 | 0.781
9 | O=C(Nc1ccncc1)Nc1ccc(Cl)cc1 | 40.5
10 | CC(NCc1ccccc1O)C12CC3CC(CC(C3)C1)C2 (centres undefined) | 81.4
11 | NC(N)=N/N=C/c1ccc(OCc2ccc(Cl)cc2)cc1 | 36.3
12 | CCCCOc1ccc(OCCNC(=O)c2ccco2)cc1 | 65.4
13 | CC(C(=O)c1ccc(-c2ccccc2)cc1)[n+]1cccc(NC(=O)c2ccccc2)c1 (centres undefined) | 36.3
14 | CC(=O)OC1=C(O)C(=O)c2ccccc2C1=O | 78.6
15 | CCn1cc(C(=O)O)c(=O)c2cc(F)c(N3CCN(C(=S)NC(=O)c4ccccc4)CC3)cc21 | 24
16 | Oc1ccc(/C=N/Nc2nccnc2Cl)c(O)c1 | 65.8
17 | c1ccc2c(NCCc3c[nH]c4ccccc34)c3ccccc3nc2c1 | 75.7
18 | COc1ccc(CNCCC(c2ccccc2)c2ccc3c(c2)OCO3)cc1 (centres undefined) | 149
19 | CSc1ccc2c(c1)C(N1CCN(C)CC1)Cc1ccccc1S2 (centres undefined) | 55.6
20 | Cc1ccc(NC(=O)CSC(N)=O)cc1Cl | 33.4
21 | O/N=C/c1ccc(OCc2ccccc2)c(Cl)c1 | 130
22 | O=C(Nc1cccc(C2=NCCN2)c1)Nc1cccc(C2=NCCN2)c1 | 36.2

Row | Compound | IC50 [µM]
23 | Cc1ccc(OCC(=O)N/N=C\c2c(C)[nH]n(-c3ccccc3)c2=O)c([N+](=O)[O-])c1 | 53.6
24 | Oc1ccc(C[C@H]2CNCCN2CCCCC2CCCCC2)cc1 | 81.7
25 | NC1CCN(c2nc3c(cc2F)c(=O)c(C(=O)O)cn3-c2ccc(F)cc2F)C1 (centres undefined) | < 0.23
26 | C/C(=C\C(=O)OCCCCCCCCC(=O)O)C[C@@H]1OC[C@H](C[C@@H]2O[C@H]2[C@@H](C)[C@H](C)O)[C@@H](O)[C@H]1O | 17.5
27 | NC1=NC[C@@H](Cc2ccc(O)cc2)N1CCc1cc(C(F)(F)F)cc(C(F)(F)F)c1 | 106
28 | O=C(N[C@H](CO)[C@H](O)c1ccc([N+](=O)[O-])cc1)C(Cl)Cl | 2.71
29 | Cc1cc(C)c(OCCCCNCc2ccccc2)c(Cl)c1 | 113
30 | COc1nsnc1NS(=O)(=O)c1ccc(NC(=S)NC(=O)c2cccnc2)cc1 | 23.6
31 | CN1CCN(C(c2ccc(C(F)(F)F)cc2)c2ccc3cccnc3c2O)CC1 (centres undefined) | 34.9
32 | CCn1cc(C(=O)O)c(=O)c2cc(F)c(N3CCN(S(=O)(=O)c4ccc(NC(C)=O)cc4)CC3)cc21 | 86.6
33 | C=C1c2cccc(O)c2C(O)=C2C(=O)[C@]3(O)C(O)=C(C(N)=O)C(=O)[C@@H](N(C)C)[C@@H]3[C@@H](O)[C@H]12 | 0.376
34 | Oc1cccc(Nc2nc(NCC3CCCO3)c3ccccc3n2)c1 (centres undefined) | 77.3
35 | O=C(/C=C/c1cccs1)NC(=S)NNC(=O)c1ccccc1O | 27
36 | Cc1ccc(NC(=O)C(=O)NNC(=O)c2cccs2)cc1 | 13.2
37 | CCn1cc(C(=O)O)c(=O)c2cnc(N3CCNCC3)nc21 | 113
38 | CCn1cc(C(=O)O)c(=O)c2cc(F)c(N3CCN(C(=S)Nc4ccc(OC)cc4)CC3)cc21 | 5.64
39 | O=C(Nc1ccc(-c2nc3ccccc3[nH]2)cc1)c1ccco1 | 87
40 | CC[C@@H](C)[C@H](CN[C@H](CNC)C(C)C)NC[C@@H](C)c1ccc(CC(C)C)cc1 | 61
41 | Clc1ccc(OCCCN2CCCC2)cc1Cl | 48.4
42 | CN(C)[C@@H]1C(=O)C(C(N)=O)=C(O)[C@@]2(O)C(=O)C3=C(O)c4c(O)cccc4[C@@](C)(O)C3[C@H](O)C12 (some centres undefined) | 2.99
43 | Cc1ccc(-c2csc(N=C(N)N)n2)c(C)c1 | 64.8
44 | O=C(NC(C(=O)c1ccccc1)n1c(=O)cc[nH]c1=S)c1ccccc1 (centres undefined) | 120
